PMC12386367, “Importin α3 Is Tolerant to Nuclear Localization Signal Chirality” (International Journal of Molecular Sciences, 2025)
Non-standard residues stand in square brackets, D forms with d. Residues, ends and D or L forms follow the SMILES beside them.

Legend:
[1] = Translational diffusion NMR (DOSY) of NLS peptides; assay type: physicochemical; conditions: ~100 μM peptide, 50 mM deuterated Tris pH 7.2, 100% D2O, 10 °C
Text: For the four peptides, we measured the experimental value of D for dioxane ranging from (1.2 ± 0.1) × 10^−5 to (1.05 ± 0.02) × 10^−5 cm^2 s^−1 in each solution containing the corresponding peptide; we assumed a hydrodynamic radius of 2.12 Å for dioxane (Table 1) under any condition. […] Furthermore, the values of D were similar for the D- and L-peptides, and the latter were already being described as disordered. Thus, we can conclude that the four D-peptides were monomeric and disordered, like the L-form counterparts, and, then, there was no difference in the hydrodynamic properties of the peptides by changing the enantiomeric nature of the residues.
The NMR spectra were acquired at 10 °C on a Bruker Avance III spectrometer (Bruker GmbH, Mannheim, Germany), equipped with a triple-resonance probe and z-pulse field gradients. All NMR experiments with D-NLS peptides were carried out in 50 mM deuterated Tris buffer (not corrected for isotope effects), pH 7.2. Spectra were calibrated with TSP, by considering pH-dependent changes in its chemical shifts; probe temperature was calibrated with pure methanol.
The typical D-NLS peptide concentrations in DOSY experiments were ~100 μM, and 128 scans were acquired, in which the gradient strength was varied linearly in sixteen steps, between 2 and 95% of the total power of the gradient coil. Measurements of the translational self-diffusion coefficient, D, were performed with the pulsed-gradient spin-echo sequence in the presence of 100% D2O. Details on the experimental conditions and fitting of the resulting curves have been described elsewhere. Gradient strength was calibrated by using the value of D for the residual proton water signal in a sample containing 100% D2O, in a 5 mm tube [23]. Gradient length was 2.5 ms; the time between the two pulse gradients in the sequence was 250 ms; and the recovery delay between the bipolar gradients was 100 μs. The signals from methyl groups between 0.8 and 1.0 ppm were used for peak integration, for all the D-NLS peptides. A final concentration of 1% of dioxane, which was assumed to have a hydrodynamic radius Rh of 2.12 Å [23], was added to the solution of each peptide.

Impα3 [2] = target: T1, Impα3 (Homo sapiens, UniProt O00629); assay: Biolayer interferometry (BLI) binding to Impα3; conditions: peptide 1–10 μM, 25 °C
T1 construct: Human importin α3 isoform (residues 1–521); made in house
T1 sequence (O00629 1-521): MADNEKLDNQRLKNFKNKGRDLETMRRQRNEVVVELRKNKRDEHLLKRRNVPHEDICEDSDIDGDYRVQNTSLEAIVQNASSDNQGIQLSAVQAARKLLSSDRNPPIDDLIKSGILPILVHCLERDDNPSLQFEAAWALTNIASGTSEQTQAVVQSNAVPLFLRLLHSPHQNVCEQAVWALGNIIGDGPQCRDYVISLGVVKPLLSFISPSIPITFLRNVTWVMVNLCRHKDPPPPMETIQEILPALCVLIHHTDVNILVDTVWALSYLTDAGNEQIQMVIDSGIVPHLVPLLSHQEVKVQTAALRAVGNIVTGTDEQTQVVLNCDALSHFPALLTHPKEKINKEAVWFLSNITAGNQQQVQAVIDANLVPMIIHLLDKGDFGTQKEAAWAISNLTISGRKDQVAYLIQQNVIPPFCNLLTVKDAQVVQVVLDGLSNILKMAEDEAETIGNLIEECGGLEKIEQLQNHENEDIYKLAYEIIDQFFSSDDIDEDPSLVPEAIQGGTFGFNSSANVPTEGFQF
Protocol: (§1) The association (kon) and dissociation (koff) rate constants of the binding of D-NLS peptides to either Impα3 or ∆Impα3 were determined by using a BLItz system (ForteBio, Pall, Barcelona, Spain). The buffer used in the experiments was that recommended by the manufacturer. […] The peptide concentrations were in a range from 1 to 10 μM during the association step. The general scheme of the protein association/dissociation reactions in the BLItz system for the D-NLS peptides was as follows: 30 s of initial baseline acquisition with the 10 × kinetics buffer (provided by the manufacturer); 120 s of loading either Impα3 and ∆Impα3 into the biosensor; 30 s of baseline acquisition with the 10 × kinetics buffer; 120 s of association of each peptide to the biosensor (which had been previously loaded with the importin species); and 120 s of monitoring of the dissociation of each peptide from the biosensor. All experiments were carried out at 25 °C.
(§2) Fittings of the BLI sensorgrams was carried out by using KaleidaGraph, as previously described. The interferometry response during the association step, R(t) (measured in response units, RU), and the binding rate, dR(t)/dt, could be used to evaluate the kinetics of the formation of the complex between Impα3/∆Impα3 and each D-NLS, according to:(2) dR/dt=konD-NLSRmax−Rt−koffR(t) where Rmax is proportional to the total concentration of biosensor-bound importin species; and [D-NLS] represents the concentration of the corresponding D-NLS peptide.
(§3) In Equation (2), R(t) is given by:(3) Rt= Req−Reqe^(−kobs t−t0) where Req is the steady-state (or equilibrium) response obtained at infinite time, when dR(t)/dt = 0, and t0 = 180 s is the time at which the association step between biosensor-immobilized Impα3/∆Impα3 and D-NLS in the solution started. We fitted the experimentally obtained R(t) under any condition as:(4) Rt= Req−Reqe^−kobs t−t0−R’eq(t−t0) where R^′eq was included to consider the lineal drift observed at longer times.
(§4) The dissociation process was always fitted to a single exponential, with R(t) given by:(6) Rt=R1 e^(−kofft−t0)−R^″eq(t−t0) where t0 = 300 is the time at which the dissociation of the D-NLS from the biosensor-bound Impα3/∆Impα3 started in our experimental set-up, R1 is the response level when dissociation starts, and the parameter R^″eq considers the linear drift observed at longer times.
(§5) The experiments were repeated at least twice for each peptide with each importin species.

∆Impα3 [3] = target: T2, ∆Impα3 (Homo sapiens, UniProt O00629); assay: Biolayer interferometry (BLI) binding to ∆Impα3; conditions: BLItz, ∆Impα3 immobilized via His-tag (0.25 μM), peptide 1–10 μM, 10 × kinetics buffer, 25 °C, error from pseudo-first order fit, at least two repeats, read-out: kon
T2 construct: IBB-depleted species of Impα3 (residues 64–521 of the intact protein); made in house
T2 sequence (O00629 64-521): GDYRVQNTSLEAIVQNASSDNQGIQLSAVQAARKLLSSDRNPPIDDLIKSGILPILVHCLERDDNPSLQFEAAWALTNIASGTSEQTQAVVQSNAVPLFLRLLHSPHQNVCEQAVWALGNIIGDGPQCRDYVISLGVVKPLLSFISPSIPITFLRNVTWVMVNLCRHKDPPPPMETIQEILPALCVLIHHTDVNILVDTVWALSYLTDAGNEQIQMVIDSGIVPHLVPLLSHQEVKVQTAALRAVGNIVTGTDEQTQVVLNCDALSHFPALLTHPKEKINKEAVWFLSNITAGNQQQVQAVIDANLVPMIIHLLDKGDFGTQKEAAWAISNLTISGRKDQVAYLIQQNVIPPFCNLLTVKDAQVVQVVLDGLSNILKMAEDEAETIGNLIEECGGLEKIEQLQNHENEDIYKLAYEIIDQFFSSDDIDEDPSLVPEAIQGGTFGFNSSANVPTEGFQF
Protocol: as §1, §2, §3, §4, §5

Impα3 [4] = target: T1, Impα3; assay: Isothermal titration calorimetry (ITC) with Impα3; assay type: binding; conditions: Impα3, 50 mM Tris pH 8.0, 25 °C
Protocol: (§6) Calorimetric titrations for testing the interaction of D-NLS peptides with either Impα3 or ΔImpα3 were carried out in an VP-ITC instrument (Microcal, Northhamptom, MA, USA). The importin species were loaded into the cell calorimeter and the corresponding D-NLS peptide in the syringe in Tris buffer 50 mM, pH 8.0. All experiments were carried out at 25 °C.
(§7) These twenty-nine ITC experiments involved sequential injections of microliter amounts (10 µL) of a stock solution of D-NLS peptide (in a concentration range of 150–200 µM) into the calorimetric cell (1.4 mL); the cell initially contained protein solution (15 µM for either Impα3 or ΔImpα3 in protomer units). To correct for the heat evolved due to the dilution effect for adding the ligand (peptide) solution to the calorimetric cell, an independent experiment was performed, in which the same peptide solution was injected into the calorimetric cell loaded with buffer. After correction for the dilution heat, the isotherm was fitted to a binding model that assumed the existence of a single set of binding sites, by using the software v1.41 provided by the manufacturer.

∆Impα3 [5] = target: T2, ∆Impα3; assay: Isothermal titration calorimetry (ITC) with ∆Impα3; assay type: binding; conditions: ∆Impα3, 50 mM Tris pH 8.0, 25 °C
Protocol: as §6, §7

[6] = sequence synthesized in reverse order; ref [38]; cited from earlier work
Text: A few additional conclusions can be drawn from our results, in the context of their relevance for understanding the importance of importin in the regulation of the nucleocytoplasmic transport of cargo proteins. Although we cannot rule out that the intrinsic high flexibility of Impα3 could be involved in its lack of selectivity towards different stereoisomers, we believe the following: (i) the intrinsic disorder of the isolated NLS peptides (derived from the cargos), as shown by NMR (Figure 1 and Figure 2), and (ii) the fact that the peptides remained disordered upon binding to the importin spe ...

[7] = L-NLS counterparts, literature values, ref [5],[6],[7], cited from earlier work
Text: Table 1 Hydrodynamic properties of the D-NLS peptides ^a. | column: D (cm^2 s^−1) × 10^6 (Rh, Å) (L-NLS) ^d

Impα3 [8] = target: T1, Impα3; conditions: literature value for L-NLS counterpart, ref [5],[6],[7], read-out: Kd (ITC) (L-NLS Peptide); cited from earlier work
Text: Table 2 Kinetic and thermodynamic parameters of the binding reaction of D-NLS peptides to Impα3 ^a. | column: Kd (μM) (ITC/Fluorescence) (L-NLS Peptide) ^c || We also used ITC to determine the thermodynamic binding parameters in the association of each of the peptides to both importin species (Figure 4). […] For D-NLS-NUPR1L, the values of enthalpy, ∆H, were −2.5 ± 0.2 and −4.5 ± 0.7 kcal mol^−1 for the binding to Impα3 and ∆Impα3, respectively. On the other hand, the values previously ...

∆Impα3 [9] = target: T2, ∆Impα3; conditions: literature value for L-NLS counterpart, ref [5],[6],[7], read-out: Kd (ITC) (L-NLS Peptide); cited from earlier work
Text: Table 3 Kinetic and thermodynamic parameters of the binding reaction of D-NLS peptides to ∆Impα3 ^a. | column: Kd (μM) (ITC/Fluorescence) (L-NLS Peptide) ^c || We also used ITC to determine the thermodynamic binding parameters in the association of each of the peptides to both importin species (Figure 4). […] For D-NLS-NUPR1L, the values of enthalpy, ∆H, were −2.5 ± 0.2 and −4.5 ± 0.7 kcal mol^−1 for the binding to Impα3 and ∆Impα3, respectively. On the other hand, the values previously ...

## CC(=O)N[C@H](CCCNC(=N)N)C(=O)N[C@@H](C(=O)N[C@H](CCCNC(=N)N)C(=O)N[C@H](CCCNC(=N)N)C(=O)N[C@H](CCC(=O)O)C(=O)N[C@H](CCC(N)=O)C(=O)N[C@H](C)C(=O)N[C@H](CC(C)C)C(=O)N[C@H](CCCNC(=N)N)C(=O)N[C@@H](C(=O)N[C@H](CC(N)=O)C(=O)N[C@H](Cc1c[nH]c2ccccc12)C(=O)N1CCC[C@@H]1C(=O)N[C@H](C)C(=O)N1CCC[C@@H]1C(=O)NCC(=O)NCC(=O)N[C@H](Cc1c[nH]cn1)C(=O)N[C@H](CCC(=O)O)C(=O)N[C@H](CCCNC(=N)N)C(=O)N[C@H](CCCCN)C(=O)N[C@@H](C(=O)N[C@H](C)C(=O)N[C@H](CCC(N)=O)C(N)=O)C(C)C)[C@H](C)O)[C@H](C)O [D-NLS-NUPR1L] (Ac-[dR][dT][dR][dR][dE][dQ][dA][dL][dR][dT][dN][dW][dP][dA][dP]GG[dH][dE][dR][dK][dV][dA][dQ]-NH2)
[1]
  Diffusion coefficient D: 2.0 ± 0.3 cm^2 s^−1 × 10^6
Impα3 [2]; BLItz, Impα3 immobilized via His-tag (0.25 μM), 10 × kinetics buffer, error from pseudo-first order fit, at least two repeats, read-out: kon
  kon: 68000 ± 7000 M⁻¹ s⁻¹
Impα3 [2]; Impα3 immobilized via His-tag, error from pseudo-first order fit (Equation 5)
  koff: 0.069 ± 0.04 s⁻¹
∆Impα3 [3]
  kon: 51200 ± 700 M⁻¹ s⁻¹
Impα3 [4]
  enthalpy ∆H: -2.5 ± 0.2 kcal/mol
∆Impα3 [5]
  enthalpy ∆H: -4.5 ± 0.7 kcal/mol

## DLKVRKAA
[6]
  Binding, dependence on stereochemistry: binding insensitive to L-/D-stereochemistry has been observed

## L-NLS-NUPR1: wild-type isolated NLS region of NUPR1, comprising residues 54 to 74 (TNRPSPGGHERKLVTKLQNSE; UniProt O60356 54-74, looked up, fragment)
[7]; estimated from Rh of dioxane
  Hydrodynamic radius Rh (L-NLS): 11 ± 1 Å
[7]
  Diffusion coefficient D (L-NLS): 1.85 ± 0.04 10^-6 cm^2 s^-1
Impα3 [8]
  Kd: 1.7 µM
∆Impα3 [9]
  Kd: 0.95 µM
